Measured values as given in patent US8841087B2 (priority 2008, dated 2014).

System: clinical strains of Mycobacterium tuberculosis
Experiment: Reference phenotypic test of antibiotic sensitivity in solid medium
Type: cell-based
Conditions: Mycobacterium tuberculosis, read-out: minimum inhibitory concentration

With `CO[C@H]1/C=C/O[C@@]2(C)Oc3c(C)c(O)c4c(O)c(c(/C=N/N5CCN(C)CC5)c(O)c4c3C2=O)NC(=O)/C(C)=C\C=C\[C@H](C)[C@H](O)[C@@H](C)[C@@H](O)[C@@H](C)[C@H](OC(C)=O)[C@@H]1C` [rifampicin] the MIC was greater than 1 µg/mL.
